Experimental data taken from patent US20040186181A1, “Method and composition for decreasing ghrelin levels” (InterHealth Nutraceuticals, Incorporated, priority 2003, published 2004).

Legend:
[1] = test system: DNA; conditions: cited from earlier work
[2] = Ingestion of HCA by persons, serum levels and appetite (controlled trials); assay type: in vivo
Source text: (§1) It has been shown that ingestion of compositions incorporating a salt of (−) hydroxycitric acid (HCA) leads to increased levels of serotonin. Serotonin levels, like ghrelin levels, also are related to NPY, and an increase in serotonin levels is a well-established mechanism of appetite suppression. Ingestion of HCA by persons and rodents results in a decrease in serum leptin and ghrelin levels and an increase in serum serotonin levels.

[3] = Ingestion of HCA by rodents, serum levels; assay type: in vivo
Source text: as §1

[4] = test system: cholesterol; conditions: animal models; cited from earlier work
[5] = test system: cholesterol; conditions: in vivo; cited from earlier work

Molecule: chromium picolinate
- safety and toxicity [1]: damage DNA and be mutagenic

Molecule: O=C(O)CC(O)(C(=O)O)C(O)C(=O)O (single isomer, unassigned; (-)) [HCA, (−)hydroxycitric acid]
- appetite ([2]; amount of food remaining on plates, controlled trials): time-dependent decrease in appetite
- serum ghrelin levels ([2]; ingestion of HCA): decrease
- serum leptin levels ([2]; ingestion of HCA): decrease
- serum serotonin levels ([2]; ingestion of HCA): increase
- serum ghrelin levels [3]: decrease
- serum leptin levels [3]: decrease
- serum serotonin levels [3]: increase

Molecule: Gymnemic acid
- cholesterol [4]: lower cholesterol

Molecule: O=C(O[C@@H]1Cc2c(O)cc(O)cc2O[C@@H]1c1cc(O)c(O)c(O)c1)c1cc(O)c(O)c(O)c1 [EGCG, epigallocatechin gallate]
- cholesterol levels [5]: reduce cholesterol levels
